This note sets out measurements from paper PMC11609934, “Exploration and characterization of the antimalarial activity of cyclopropyl carboxamides that target the mitochondrial protein, cytochrome b” (European Journal of Medicinal Chemistry, 2024).

Data set [1] in a line: eLogD (shake-flask, pH 7.4). Type of data set: physicochemical. As to conditions: 1-octanol/phosphate buffered saline (1:1, v/v), Shake-flask method. The protocol:
eLogD. The LogD (pH 7.4) assay was performed using a miniaturized shake flask method. A solution of a pre-saturated mixture of 1-octanol and phosphate buffered saline (PBS) (1:1, v/v) and the test compound (75 μM) was incubated at 25 °C with constant shaking (850 rpm) for 2 h. After incubation the organic and aqueous phases were separated, and samples of each phase transferred to plate for dilution. The organic phase was diluted to 1000-fold and the aqueous phase was diluted 20-fold. The samples were quantitated using LC-MS/MS. The experiment was carried out in duplicate. Propranolol, amitriptyline, and midazolam were used as reference standards.

The next data set has as its system Pf SB1-A6 strain. Description: Asexual stage assay, SB1-A6 strain. As to conditions: Plasmodium falciparum, 72 h, read-out: SB1-A6 EC50 (SD). The data set is classed as cell-based. The protocol: (§1) DHODH is essential for the function of the mitochondria ETC and pyrimidine biosynthesis. Compounds that inhibit cyt b typically have reduced activity against parasite strains with increased DHODH levels. To support evidence that the cyclopropyl carboxamide series impacts the mitochondrial ETC, selected analogs were evaluated against both the SB1-A6 strain that has a 2-fold amplification and a C276F SNP in PfDHODH [24] and a Dd2 strain that expresses Saccharomyces cerevisiae DHODH (ScDHODH). ScDHODH has low sequence homology to PfDHODH and is ubiquinone-independent in that it uses fumarate instead of mitochondrial coenzyme Q as an electron acceptor and therefore compounds that inhibit the Plasmodium mitochondrial ETC have reduced activity against the ScDHODH parasite strain.
(§2) Cyt b Resistant and ScDHODH Asexual Stage Assays. These assays were conducted as previously described. Briefly, asexual parasite strains indicated in Table 12 were incubated with compound in a dose response format for 72 h. Parasitemia was determined using SYBR-green fluorescence measured by flow cytometry (Thermo Fisher Attune). EC50 values were determined as described for the LDH assay.

Data set [2] deals with Pf Dd2 strain with an I22L mutation in the Qi site cyt b. Description: Cyt b resistant asexual stage assay, Dd2 cyt b(I22L). The conditions noted are these: Plasmodium falciparum, DD2, 72 h, read-out: Pf cyt b mutant strains EC50 (SD) Dd2 cyt b(I22L). Type of data set: cell-based. How it is done: (§3) To determine whether the cyclopropyl carboxamide series specifically targets the Qo site of cyt b, representative analogs W466 (1), W499 (2), and the focal compound here-on referred to as WJM280 (108) were evaluated against drug-resistant parasite strains with mutations in the Qo or Qi site of cyt b. […] These mutations are mapped to a model of cyt b in Fig. 3.
as §2

A short description of data set [3]: Human liver microsome stability. The data set is classed as in vitro ADME. The conditions noted are these: pooled human liver microsomes. How it is done: Human Liver Microsome Stability. A solution of the test compounds in phosphate buffer solution (1 μM) was incubated in pooled human liver microsomes (0.5 mg/mL) for 0, 5, 20, 30, 45 and 60 min at 37 °C in the presence and absence of NADPH regeneration system. The reaction was terminated with the addition of ice-cold acetonitrile containing system suitability standard at designated time points. […] The experiment was carried out in duplicate. Verapamil, diltiazem, phenacetin, and imipramine were used as reference standards.
A general note: Liver microsomes are vesicles of endoplasmic reticulum, rich in cytochrome P450 enzymes.

A short description of a further data set: Rat hepatocyte stability. As to conditions: pooled rat hepatocytes. Type of data set: in vitro ADME. How it is done: Rat Hepatocyte Stability. A solution of the test compound in Krebs-Henseliet buffer solution (1 μM) was incubated in pooled rat hepatocytes (1 × 10^6 cells/mL) for 0, 15,30,45, 60, 75 and 90 min at 37 °C (5 % CO2, 95 % relative humidity). The reaction was terminated with the addition of ice-cold acetonitrile containing system suitability standard at designated time points. […] The experiment was carried out in duplicate. Diltiazem, 7-ethoxy coumarin, propranolol, and midazolam were used as reference standards.

Data set [4] relates to Pf 3D7 3-oxadiazole quinolone resistant strain with a V259L mutation in the Qo site of cyt b. Description: Cyt b resistant asexual stage assay, 3D7 cyt b(V259L). The data set is classed as cell-based, Plasmodium falciparum. As to conditions: for EC50: Plasmodium falciparum, 3D7, 72 h, read-out: Pf cyt b mutant strains EC50 (SD) 3D7 cyt b(V259L). How it is done: as §3, §2
In data set [5] the test system is Pf Dd2 expressing ScDHODH. Description: ScDHODH asexual stage assay. The data set is classed as cell-based. As to conditions: Plasmodium falciparum, DD2, 72 h, read-out: Dd2 ScDHODH EC50 (SD). The protocol:
as §1, §2

The nature of data set [6]: Human HepG2 growth inhibition assay (Cell TitreGlo, 48 h). Type of data set: cell-based. The conditions noted are these: human, HepG2 cells, HepG2 cell growth inhibition over 48 h. The essentials:
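HepG2 cells (1000/well, DMEM + 10% FCS) exposed 48 h at 37 °C, 5% CO2 to compound from 50 μM top concentration in 1:2 dilutions, 0.5% DMSO final. Viability read by Cell Titer Glo, normalised to DMSO and 10 μM bortezomib; EC50 by four-parameter variable-slope fit.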

Data set [7] is described as follows: Aqueous solubility (kinetic in PBS, pH 7.4). As to conditions: phosphate buffered saline. The data set is classed as physicochemical. The protocol:
Solubility. The solubility assay was performed using a miniaturized shake flask method. A solution of phosphate buffered saline (PBS) and the test compound (200 μM) was incubated at 25 °C with constant shaking (600 rpm) for 2 h. The samples were filtered using a multiscreen solubility filter plate. The filtrate was half diluted in acetonitrile. A five-point linearity curve was prepared in PBS:acetonitrile (1:1, v/v) at 200, 150, 75, 25 and 2.5 μM. Blank, linearity and test samples (n = 2) were transferred to a UV readable plate and the plate was scanned for absorbance. Best fit calibration curves were constructed using the calibration standards and used to determine the test sample solubility. The experiment was carried out in duplicate. Diethylstilbestrol, haloperidol, and diclofenac sodium were used as reference standards.

SMILES strings stand for the structures. Converted amounts (≈) assume the structure as drawn. Some results are limits rather than exact numbers.

One may read the logD as the decadic logarithm of the distribution of all forms, ionised or not, between an organic phase and buffer at a given pH. As usually defined, the EC50 is the concentration giving half of the maximal effect. As a reminder, the microsomal CLint is a measure of how fast metabolising enzymes remove a compound, apart from limits set by blood flow. Read a high microsomal CLint as rapid turnover. As a reminder, the hepatocyte CLint is a measure of how fast metabolising enzymes remove a compound, apart from limits set by blood flow. The term CC50 denotes the concentration giving 50% cytotoxicity. Low values mean harm at low concentration, high ones better tolerance by the cells. One may read the solubility as how much of the substance goes into solution per volume. Regarding `O=C(NC1CC1)c1ccc(CN(Cc2ccc(Cl)cc2Cl)C2CC2)cc1` [W499 (2)], the pH-dependent lipophilicity (logD) at 2 h in data set [1] is 4.1. For the same compound, the EC50 in the data set with Pf SB1-A6 strain was greater than 10000 nM; in data set [2], 49 nM; in data set [4] it was 165 nM; in data set [5], greater than 10000 nM. For the same compound, in [3], the microsomal CLint at 1 h, 1 µM amounted to 177 µL/min/mg. Besides, the intrinsic clearance (hepatocyte CLint) at 1 μM in “Rat hepatocyte stability” is greater than 92 µL/min/1e6 cells. Further, in data set [4], the “fold reduction in activity against cyt b V259L Qo site mutant compared to the Dd2 parent strain” value came to 1.5 fold. The compound also showed a cytotoxic concentration (CC50) at 48 h in data set [6] greater than 40000 nM. This compound had a solubility at 2 h in data set [7] of 7.4 µM (≈ 2.88 µg/mL).

`CCCN(Cc1ccc(C(=O)NC2CC2)cc1)Cc1ccc(C(F)(F)F)cc1` [WJM280 (108), N-Cyclopropyl-4-((propyl(4-(trifluoromethyl)benzyl)amino)methyl)benzamide]: the logD at 2 h in data set [1] came out at 5.2. Besides, the EC50 is greater than 10000 nM in the data set on Pf SB1-A6 strain, 2 nM in [2], 23 nM in data set [4] and greater than 10000 nM in data set [5]. In addition, the microsomal CLint at 1 h, 1 µM in data set [3] is 62 µL/min/mg. Also, the hepatocyte CLint at 1 μM in the data set “Rat hepatocyte stability” was greater than 92 µL/min/1e6 cells. Moreover, the “fold reduction in activity against cyt b V259L Qo site mutant compared to the Dd2 parent strain” value in data set [4] amounted to 2 fold. This compound displayed a CC50 at 48 h in data set [6] of 15000 nM. Besides, the solubility at 2 h in data set [7] was determined as 15 µM (≈ 5.86 µg/mL).
